Results taken from PubChem BioAssay (NCI).
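These data come from cells grown in 96-well plates and exposed to compound for 48 hours at five concentrations. At the GI50, growth is halved. The concentration for full growth arrest is given as TGI.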

Columns and labels:
Assay in all cases: DTP human tumour cell line panel, 48 h
OVCAR-3 ovarian = test system: OVCAR-3 ovarian
EKVX NSCLC = test system: EKVX NSCLC
CAKI-1 renal = test system: CAKI-1 renal
NCI-H522 lung = test system: NCI-H522 lung
OVCAR-4 ovarian = test system: OVCAR-4 ovarian
UACC-62 melanoma = test system: UACC-62 melanoma
SK-OV-3 ovarian = test system: SK-OV-3 ovarian
HOP-92 NSCLC = test system: HOP-92 NSCLC
UO-31 renal = test system: UO-31 renal
HCT-116 colon = test system: HCT-116 colon
SNB-75 CNS = test system: SNB-75 CNS
T-47D breast = test system: T-47D breast
BT-549 breast = test system: BT-549 breast
HCT-15 colon = test system: HCT-15 colon
OVCAR-5 ovarian = test system: OVCAR-5 ovarian
MDA-MB-435 = test system: MDA-MB-435
SK-MEL-28 melanoma = test system: SK-MEL-28 melanoma
LOX IMVI melanoma = test system: LOX IMVI melanoma
IGROV1 ovarian = test system: IGROV1 ovarian
SR leukemia = test system: SR leukemia
SNB-19 CNS = test system: SNB-19 CNS
OVCAR-8 ovarian = test system: OVCAR-8 ovarian
NCI-H23 lung = test system: NCI-H23 lung
PC-3 prostate = test system: PC-3 prostate
HCC-2998 colon = test system: HCC-2998 colon
786-0 renal = test system: 786-0 renal
NCI/ADR-RES ovarian = test system: NCI/ADR-RES ovarian
COLO 205 colon = test system: COLO 205 colon
HS 578T breast = test system: HS 578T breast
MDA-MB-468 breast = test system: MDA-MB-468 breast
TK-10 renal = test system: TK-10 renal
DU-145 prostate = test system: DU-145 prostate
NCI-H460 lung = test system: NCI-H460 lung
M14 melanoma = test system: M14 melanoma
RPMI-8226 leukemia = test system: RPMI-8226 leukemia
SW-620 colon = test system: SW-620 colon
MOLT-4 leukemia = test system: MOLT-4 leukemia
MDA-MB-231 breast = test system: MDA-MB-231 breast
SF-268 CNS = test system: SF-268 CNS
SF-295 CNS = test system: SF-295 CNS
CCRF-CEM leukemia = test system: CCRF-CEM leukemia
HOP-62 NSCLC = test system: HOP-62 NSCLC
K-562 leukemia = test system: K-562 leukemia
MALME-3M melanoma = test system: MALME-3M melanoma
HL-60(TB) leukemia = test system: HL-60(TB) leukemia
SN12C renal = test system: SN12C renal
HT29 colon = test system: HT29 colon
SF-539 CNS = test system: SF-539 CNS
A549 NSCLC = test system: A549 NSCLC
A498 renal = test system: A498 renal
U251 CNS = test system: U251 CNS
SK-MEL-2 melanoma = test system: SK-MEL-2 melanoma
UACC-257 melanoma = test system: UACC-257 melanoma
ACHN renal = test system: ACHN renal
SK-MEL-5 melanoma = test system: SK-MEL-5 melanoma
NCI-H226 lung = test system: NCI-H226 lung
MCF7 breast = test system: MCF7 breast
KM12 colon = test system: KM12 colon

Compound: Cc1oc(-c2ccccc2)nc1CN[C@@H]1C[C@@H]2C[C@H]([C@H]1C)C2(C)C
- GI50 (OVCAR-3 ovarian): 12.7 µM
- TGI (OVCAR-3 ovarian): 25.6 µM
- GI50 (EKVX NSCLC): 11.2 µM
- TGI (EKVX NSCLC): 23.3 µM
- GI50 (CAKI-1 renal): 13.3 µM
- TGI (CAKI-1 renal): 26.1 µM
- GI50 (NCI-H522 lung): 12.7 µM
- TGI (NCI-H522 lung): 28.4 µM
- GI50 (OVCAR-4 ovarian): 11.4 µM
- TGI (OVCAR-4 ovarian): 25.8 µM
- GI50 (UACC-62 melanoma): 12.5 µM
- TGI (UACC-62 melanoma): 25 µM
- GI50 (SK-OV-3 ovarian): 16.8 µM
- TGI (SK-OV-3 ovarian): 32.3 µM
- GI50 (HOP-92 NSCLC): 1.49 µM
- TGI (HOP-92 NSCLC): 12.6 µM
- GI50 (UO-31 renal): 4.65 µM
- TGI (UO-31 renal): 18.8 µM
- GI50 (HCT-116 colon): 4.3 µM
- TGI (HCT-116 colon): 18.3 µM
- GI50 (SNB-75 CNS): 13.2 µM
- TGI (SNB-75 CNS): 26.6 µM
- GI50 (T-47D breast): 4.42 µM
- TGI (T-47D breast): 21.4 µM
- GI50 (BT-549 breast): 4.94 µM
- TGI (BT-549 breast): 19.1 µM
- GI50 (HCT-15 colon): 3.85 µM
- TGI (HCT-15 colon): 15.5 µM
- GI50 (OVCAR-5 ovarian): 7.9 µM
- TGI (OVCAR-5 ovarian): 20.6 µM
- GI50 (MDA-MB-435): 13.3 µM
- TGI (MDA-MB-435): 26.5 µM
- GI50 (SK-MEL-28 melanoma): 7.59 µM
- TGI (SK-MEL-28 melanoma): 20.3 µM
- GI50 (LOX IMVI melanoma): 5.17 µM
- TGI (LOX IMVI melanoma): 18.1 µM
- GI50 (IGROV1 ovarian): 10.1 µM
- TGI (IGROV1 ovarian): 22.1 µM
- GI50 (SR leukemia): 10.6 µM
- TGI (SR leukemia): 36.7 µM
- GI50 (SNB-19 CNS): 14.2 µM
- TGI (SNB-19 CNS): 27.3 µM
- GI50 (OVCAR-8 ovarian): 14.1 µM
- TGI (OVCAR-8 ovarian): 31.8 µM
- GI50 (NCI-H23 lung): 12.8 µM
- TGI (NCI-H23 lung): 25.9 µM
- GI50 (PC-3 prostate): 7.17 µM
- TGI (PC-3 prostate): 23.1 µM
- GI50 (HCC-2998 colon): 4.22 µM
- TGI (HCC-2998 colon): 16.6 µM
- GI50 (786-0 renal): 5.64 µM
- TGI (786-0 renal): 21.1 µM
- GI50 (NCI/ADR-RES ovarian): 12.7 µM
- TGI (NCI/ADR-RES ovarian): 25.5 µM
- GI50 (COLO 205 colon): 2.11 µM
- TGI (COLO 205 colon): 5.3 µM
- GI50 (HS 578T breast): 11.9 µM
- TGI (HS 578T breast): 30.5 µM
- GI50 (MDA-MB-468 breast): 2.13 µM
- TGI (MDA-MB-468 breast): 8.29 µM
- GI50 (TK-10 renal): 15.4 µM
- TGI (TK-10 renal): 31.5 µM
- GI50 (DU-145 prostate): 10.1 µM
- TGI (DU-145 prostate): 21.8 µM
- GI50 (NCI-H460 lung): 6.32 µM
- TGI (NCI-H460 lung): 20.3 µM
- GI50 (M14 melanoma): 2.21 µM
- TGI (M14 melanoma): 5.78 µM
- GI50 (RPMI-8226 leukemia): 3.82 µM
- TGI (RPMI-8226 leukemia): 19.2 µM
- GI50 (SW-620 colon): 11.4 µM
- TGI (SW-620 colon): 24.5 µM
- GI50 (MOLT-4 leukemia): 16.6 µM
- TGI (MOLT-4 leukemia): 45.9 µM
- GI50 (MDA-MB-231 breast): 4.56 µM
- TGI (MDA-MB-231 breast): 16.9 µM
- GI50 (SF-268 CNS): 11.6 µM
- TGI (SF-268 CNS): 25.7 µM
- GI50 (SF-295 CNS): 15.6 µM
- TGI (SF-295 CNS): 29.1 µM
- GI50 (CCRF-CEM leukemia): 18.9 µM
- TGI (CCRF-CEM leukemia): 48.6 µM
- GI50 (HOP-62 NSCLC): 14.2 µM
- TGI (HOP-62 NSCLC): 32.4 µM
- GI50 (K-562 leukemia): 3.63 µM
- TGI (K-562 leukemia): > 100 µM
- GI50 (MALME-3M melanoma): 2.87 µM
- TGI (MALME-3M melanoma): 13.6 µM
- GI50 (HL-60(TB) leukemia): 18 µM
- TGI (HL-60(TB) leukemia): 37.7 µM
- GI50 (SN12C renal): 10.5 µM
- TGI (SN12C renal): 22.5 µM
- GI50 (HT29 colon): 3.39 µM
- TGI (HT29 colon): 15 µM
- GI50 (SF-539 CNS): 12.5 µM
- TGI (SF-539 CNS): 25 µM
- GI50 (A549 NSCLC): 14 µM
- TGI (A549 NSCLC): 33.6 µM
- GI50 (A498 renal): 13.5 µM
- TGI (A498 renal): 26.8 µM
- GI50 (U251 CNS): 7.61 µM
- TGI (U251 CNS): 22.8 µM
- GI50 (SK-MEL-2 melanoma): 14.5 µM
- TGI (SK-MEL-2 melanoma): 28.4 µM
- GI50 (UACC-257 melanoma): 7.95 µM
- TGI (UACC-257 melanoma): 21.4 µM
- GI50 (ACHN renal): 13.7 µM
- TGI (ACHN renal): 26.5 µM
- GI50 (SK-MEL-5 melanoma): 3.32 µM
- TGI (SK-MEL-5 melanoma): 11.9 µM
- GI50 (NCI-H226 lung): 8.99 µM
- TGI (NCI-H226 lung): 25 µM
- GI50 (MCF7 breast): 7.06 µM
- TGI (MCF7 breast): 21.4 µM
- GI50 (KM12 colon): 9.49 µM
- TGI (KM12 colon): 21.8 µM
